From patent publication US20260001876A1, “Compounds and Their Use as PDE4 Activators” (Mironid Limited, priority 2022, published 2026) come the findings set out here.

In one assay the test system is m-IMCD3 cells. Kind of assay: Inhibition of PGE2-stimulated in vitro cyst formation in m-IMCD3 cells (3D culture). Format: cell-based. The note with it: Mus musculus, mIMCD3, 144 h; 3 μM; mean cyst area; 100% for (DMSO + PGE2) and 0% for DMSO control; 6 days of culture; read-out: % Cyst area* after incubation with 3 μM test compound. The protocol:
HEK 293 and MDCK cells (Public Health England, Cell Culture Collections) were maintained in Dulbecco's Modified Eagle's Medium (DMEM) supplemented with 10% (v/v) fetal bovine serum (FBS) (Seralab), 2 mM L-glutamine and 100 U/mL penicillin streptomycin cocktail (ThermoFisher); termed complete media. Clonal HEK 293 cell lines were maintained in complete media supplemented with 0.6 mg/ml G418 (Enzo Life Sciences). Mouse inner medullary collecting duct (m-IMCD3) cells [American Type Culture Collection (ATCC)] were maintained in media consisting of DMEM/Hams F-12 50/50 Mix (DMEM F12; Corning) supplemented with penicillin streptomycin cocktail (100 U/mL) and FBS (10% v/v) (DMEM F12-10% FBS).
Experiment 3: Inhibition of In Vitro Cyst Formation in m-IMCD3 Cells Treated with PDE4 Long Form Activators
The mouse Inner Medullary Collecting Duct cell line (m-IMCD3) spontaneously forms cystic spheroids in 3D culture with a Type 1 collagen/Matrigel extracellular matrix. This process can be stimulated with agents which raise intracellular cAMP and is used as an in vitro model for the formation of cystic structures in the kidneys of patients with ADPKD.
Rat Collagen I (Fisher Scientific) is prepared on ice by neutralising with 1M NaOH and diluting with a 2× volume of DMEM/F12+10% FBS. This is mixed 1:1.1 with ice cold Matrigel (Corning) for coating plates (coating mix), and 1:0.93 with Matrigel for cell plating (plating mix).
The assay is conducted in the wells of a 96-well plate culture dish using a total volume of 130 μL of collagen/Matrigel/DMEM F12-10% FBS suspension in growth media for each matrix plug per individual well. Initially, 30 μL of collagen/Matrigel/DMEM F12-10% FBS (coating mix) is added into the well of a 96 well plate and the collagen is set to a gel by incubating at 37° C. for at least 15 minutes. A second layer of 100 μL collagen/Matrigel suspension (plating mix) containing m-IMCD3 cells (2.75×10^6 m-IMCD3 cells per 96-well plate) is layered over the coating mix and the collagen/Matrigel/cell mix again set to a gel by incubating at 37° C. Cell cultures are maintained at 37° C. in an atmosphere of 5% CO2, 95% air.
Between 18 and 24 h after plating, test compound(s) as DMSO stock solutions [0.1% (v/v) final DMSO concentration] and PGE2 (100 nM final concentration) in DMEM F12-10% FBS are added in quadruplicate wells per condition. Media, together with the test compound and PGE2 are replenished after 2 or 3 days. After 6 days of culture z stack images of the wells are captured using the Nikon Eclipse Ti2-E microscope. Nikon General Analysis software is used to measure the following parameters in each well: the mean cyst area, the number of cysts, and the total cyst area.
PDE4 long form activators inhibited in vitro cyst formation in m-IMCD3 cells. Data are shown in Table 4 as mean cyst area (%), compared to 100% for (DMSO+PGE2) and 0% for DMSO control.
Take `N#Cc1ccc(CC(=O)N2CCc3nc(N4CC5CCC(C4)N5)ncc3C2)cc1` [Example 138, 4-(2-(2-(3,8-diazabicyclo[3.2.1]octan-3-yl)-7,8-dihydropyrido[4,3-d]pyrimidin-6(5H)-yl)-2-oxoethyl)benzonitrile]: the activity at 3 µM worked out at 0%.

For the molecule `CC(C)(C)CC(=O)N1CCc2nc(N3CCNCC3)ccc2C1` [Example 149, 3,3-dimethyl-1-(2-(piperazin-1-yl)-7,8-dihydro-1,6-naphthyridin-6(5H)-yl) butan-1-one], the activity at 3 µM was found to be 11%. `O=C(OCc1ccccc1)N1CCc2nc(N3C4CCC3CNC4)ccc2C1` [Example 127, benzyl 2-(3,8-diazabicyclo[3.2.1]octan-8-yl)-7,8-dihydro-1,6-naphthyridine-6(5H)-carboxylate]: the activity at 3 µM turned out to be 3%. For the molecule `CCN1CCN(c2ccc3c(n2)CCN(S(=O)(=O)Cc2ccc(F)cc2)C3)CC1` [Example 161, 2-(4-ethylpiperazin-1-yl)-6-((4-fluorobenzyl)sulfonyl)-5,6,7,8-tetrahydro-1,6-naphthyridine], the activity at 3 µM is 0%. On to `O=C(CC1CCCC1)N1CCc2nc(N3C4CCC3CNC4)ncc2C1` [Example 142, 1-(2-(3,8-diazabicyclo[3.2.1]octan-8-yl)-7,8-dihydropyrido[4,3-d]pyrimidin-6(5H)-yl)-2-cyclopentylethan-1-one], for which the activity at 3 µM was 26%. In the case of `CCN1CCN(c2ccc3c(n2)CCN(S(=O)(=O)Cc2ccccc2)C3)CC1` [Example 165, 6-(benzylsulfonyl)-2-(4-ethylpiperazin-1-yl)-5,6,7,8-tetrahydro-1,6-naphthyridine], the activity at 3 µM is -1%.

For the molecule `O=C(Cc1ccc(F)cc1)N1CCc2nc(N3CC4CCC(C3)N4)ncc2C1` [Example 141, 1-(2-(3,8-diazabicyclo[3.2.1]octan-3-yl)-7,8-dihydropyrido[4,3-d]pyrimidin-6(5H)-yl)-2-(4-fluorophenyl)ethan-1-one], the activity at 3 µM is -2%. Consider `O=C(CC1CCCC1)N1CCc2cnc(N3C4CCC3CNC4)nc2C1` [Example 148, 1-(2-(3,8-diazabicyclo[3.2.1]octan-8-yl)-5,8-dihydropyrido[3,4-d]pyrimidin-7 (6H)-yl)-2-cyclopentylethan-1-one], for which the activity at 3 µM is 7%. In the case of `O=C(Cc1ccccc1)N1CCc2nc(N3CC4CCC(C3)N4)ncc2C1` [Example 135, 1-(2-(3,8-diazabicyclo[3.2.1]octan-3-yl)-7,8-dihydropyrido[4,3-d]pyrimidin-6(5H)-yl)-2-phenylethan-1-one], the activity at 3 µM is -5%. As for `O=S(=O)(Cc1ccccc1)N1CCc2nc(N3CCNCC3)ccc2C1` [Example 164, 6-(benzylsulfonyl)-2-(piperazin-1-yl)-5,6,7,8-tetrahydro-1,6-naphthyridine], the activity at 3 µM was 0%. On to `O=C(CC1CCCC1)N1CCc2cc(N3C4CCC3CNC4)cnc2C1` [Example 177, 1-(3-(3,8-diazabicyclo[3.2.1]octan-8-yl)-5,8-dihydro-1,7-naphthyridin-7 (6H)-yl)-2-cyclopentylethan-1-one], for which the activity at 3 µM turned out to be 10%.

Turning to `O=C(COc1ccc(F)cc1)N1CCc2nc(N3CCNCC3)ccc2C1` [Example 180, 2-(4-fluorophenoxy)-1-(2-(piperazin-1-yl)-7,8-dihydro-1,6-naphthyridin-6(5H)-yl)ethan-1-one], the activity at 3 µM worked out at 11%.

As for `CC(C)(C)CC(=O)N1CCc2nc(N3C4CCC3CNC4)ncc2C1` [Example 146, 1-(2-(3,8-diazabicyclo[3.2.1]octan-8-yl)-7,8-dihydropyrido[4,3-d]pyrimidin-6(5H)-yl)-3,3-dimethylbutan-1-one], the activity at 3 µM turned out to be 22%. As for `CC(C)OC(=O)N1CCc2nc(N3C4CCC3CNC4)ccc2C1` [Example 126, isopropyl 2-(3,8-diazabicyclo[3.2.1]octan-8-yl)-7,8-dihydro-1,6-naphthyridine-6(5H)-carboxylate], the activity at 3 µM was found to be 14%. On the same count and under the same terms, then `CC(C)[C@H](C)C(=O)N1Cc2ccc(N3C4CCC3CNC4)nc2C1` [Example 128, (2S)-1-(2-(3,8-diazabicyclo[3.2.1]octan-8-yl)-5,7-dihydro-6H-pyrrolo[3,4-b]pyridin-6-yl)-2,3-dimethylbutan-1-one], with 3%; and `O=C(c1ccccc1)N1CCc2nc(N3C4CCC3CNC4)ccc2C1` [Example 120, (2-(3,8-diazabicyclo[3.2.1]octan-8-yl)-7,8-dihydro-1,6-naphthyridin-6(5H)-yl)(phenyl)methanone], with 1%; and `O=C(CC1CCCC1)N1CCc2cnc(N3C4CCC3CNC4)cc2C1` [Example 179, 1-(7-(3,8-diazabicyclo[3.2.1]octan-8-yl)-3,4-dihydro-2,6-naphthyridin-2 (1H)-yl)-2-cyclopentylethan-1-one], with 1%. With `Cc1cncc(-c2ccc3c(n2)CCN(C(=O)CC2CCCC2)C3)c1` [Example 182, 2-cyclopentyl-1-(2-(5-methylpyridin-3-yl)-7,8-dihydro-1,6-naphthyridin-6(5H)-yl)ethan-1-one], the activity at 3 µM stood at 50%.

Take `CCN1CCN(c2ccc3c(n2)CCN(C(=O)N[C@H]2CCOc4ccccc42)C3)CC1` [Example 169, (S)—N-(chroman-4-yl)-2-(4-ethylpiperazin-1-yl)-7,8-dihydro-1,6-naphthyridine-6(5H)-carboxamide]: the activity at 3 µM is -4%.

Staying with this assay, now noted: Mus musculus, mIMCD3, 144 h; 10 μM; mean cyst area; 100% for (DMSO + PGE2) and 0% for DMSO control; 6 days of culture; read-out: % Cyst area* after incubation with 10 μM test compound.
In the case of `O=C(N1Cc2ccc(N3C4CCC3CNC4)nc2C1)C(F)(F)c1ccccc1` [Example 130, 1-(2-(3,8-diazabicyclo[3.2.1]octan-8-yl)-5,7-dihydro-6H-pyrrolo[3,4-b]pyridin-6-yl)-2,2-difluoro-2-phenylethan-1-one], the activity at 10 µM is -10%. Still for that read-out and setting: as for `O=C(CC1CCCC1)N1CCc2nc(N3C4CCC3CNC4)ccc2C1` [Example 39, 1-(2-(3,8-diazabicyclo[3.2.1]octan-8-yl)-7,8-dihydro-1,6-naphthyridin-6(5H)-yl)-2-cyclopentylethan-1-one], the figure is 5%; as for `CN1CC2CCC(C1)N2c1ccc2c(n1)CN(C(=O)CC1CCC(F)(F)CC1)C2` [Example 93, 2-(4,4-difluorocyclohexyl)-1-(2-(3-methyl-3,8-diazabicyclo[3.2.1]octan-8-yl)-5,7-dihydro-6H-pyrrolo[3,4-b]pyridin-6-yl)ethan-1-one], -3%; as for `O=C(N1CCCC1)N1Cc2ccc(N3C4CCC3CNC4)nc2C1` [Example 95, (2-(3,8-diazabicyclo[3.2.1]octan-8-yl)-5,7-dihydro-6H-pyrrolo[3,4-b]pyridin-6-yl)(pyrrolidin-1-yl)methanone], -2%. Turning to `O=C(CC1CCCC1)N1CCc2nc(N3CCN[C@H](CO)C3)ccc2C1` (single isomer, unassigned) [Example 132], the activity at 10 µM was -4%. In the case of `CC(C)CC(=O)N1CCc2nc(N3C4CCC3CNC4)ccc2C1` [Example 43, 1-(2-(3,8-diazabicyclo[3.2.1]octan-8-yl)-7,8-dihydro-1,6-naphthyridin-6(5H)-yl)-3-methylbutan-1-one], the activity at 10 µM is -4%. Take `CCN(CC)C(=O)N1Cc2ccc(N3C4CCC3CNC4)nc2C1` [Example 96, 2-(3,8-diazabicyclo[3.2.1]octan-8-yl)-N,N-diethyl-5,7-dihydro-6H-pyrrolo[3,4-b]pyridine-6-carboxamide]: the activity at 10 µM is -4%. `O=C(N1CCCC1)N1CCc2nc(N3C4CCC3CNC4)ccc2C1` [Example 61, (2-(3,8-diazabicyclo[3.2.1]octan-8-yl)-7,8-dihydro-1,6-naphthyridin-6(5H)-yl)(pyrrolidin-1-yl)methanone]: the activity at 10 µM turned out to be 3%. Take `O=C(NC1CCC(F)(F)CC1)N1CCc2nc(N3C4CCC3CNC4)ccc2C1` [Example 59, 2-(3,8-diazabicyclo[3.2.1]octan-8-yl)-N-(4,4-difluorocyclohexyl)-7,8-dihydro-1,6-naphthyridine-6(5H)-carboxamide]: the activity at 10 µM was -4%.
